{"source": "BindingDB's records for doi:10.1074/jbc.M113.479717", "about": "(University of Manchester, 2013)", "assay_in_all_cases": "Optical Titration Assay", "settings_in_all_cases": "pH 7", "key": {"[1]": {"biological_target": "T1, Bifunctional cytochrome P450/NADPH--P450 reductase (Bacillus megaterium, UniProt P14779)", "T1 sequence (P14779 whole entry)": "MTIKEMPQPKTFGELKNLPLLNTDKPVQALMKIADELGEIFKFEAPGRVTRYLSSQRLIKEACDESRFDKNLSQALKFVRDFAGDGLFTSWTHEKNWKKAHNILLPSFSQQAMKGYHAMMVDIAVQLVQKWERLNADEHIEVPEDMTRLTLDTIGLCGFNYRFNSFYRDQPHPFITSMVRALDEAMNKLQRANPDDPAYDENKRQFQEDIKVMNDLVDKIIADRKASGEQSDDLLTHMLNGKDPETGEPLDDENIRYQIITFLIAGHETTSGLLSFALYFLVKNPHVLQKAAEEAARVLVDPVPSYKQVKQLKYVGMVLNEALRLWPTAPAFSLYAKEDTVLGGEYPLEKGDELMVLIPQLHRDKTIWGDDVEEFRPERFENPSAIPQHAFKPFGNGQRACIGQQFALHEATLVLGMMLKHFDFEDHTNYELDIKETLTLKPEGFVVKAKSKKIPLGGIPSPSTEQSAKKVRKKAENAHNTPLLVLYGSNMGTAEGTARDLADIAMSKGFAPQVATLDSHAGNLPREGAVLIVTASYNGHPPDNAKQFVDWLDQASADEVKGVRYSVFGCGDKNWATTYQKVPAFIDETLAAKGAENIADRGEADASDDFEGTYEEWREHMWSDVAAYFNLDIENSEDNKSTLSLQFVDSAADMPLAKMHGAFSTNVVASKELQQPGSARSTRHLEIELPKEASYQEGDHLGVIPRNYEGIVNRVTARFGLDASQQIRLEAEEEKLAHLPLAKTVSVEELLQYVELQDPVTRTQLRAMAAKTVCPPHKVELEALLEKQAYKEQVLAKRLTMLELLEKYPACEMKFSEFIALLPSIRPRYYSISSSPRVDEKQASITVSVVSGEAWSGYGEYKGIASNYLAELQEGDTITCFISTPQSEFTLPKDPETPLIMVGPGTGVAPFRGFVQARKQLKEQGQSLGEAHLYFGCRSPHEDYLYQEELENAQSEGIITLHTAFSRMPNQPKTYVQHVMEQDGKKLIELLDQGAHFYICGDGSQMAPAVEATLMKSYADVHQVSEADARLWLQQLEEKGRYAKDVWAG", "procedure": "(§1) Dissociation constants (Kd values) for binding of the substrates N-palmitoylglycine (NPG) and omeprazole (OMP) to WT and mutant BM3 heme domains were determined by UVvisible absorption titrations using ~1-4 μM protein in 100mMKPi, pH 7.0, at 25 °C (assay buffer) in 1-cm path length quartz cuvettes and as in our previous studies. Spectra were recorded for substrate-free enzymes and following addition of ligands during substrate titrations (typically 800 to 250 nm)."}, "[2]": {"biological_target": "Bifunctional cytochrome P450/NADPH--P450 reductase [A82F] (Bacillus megaterium, UniProt P14779, A82F)", "sequence (P14779 whole entry A83F)": "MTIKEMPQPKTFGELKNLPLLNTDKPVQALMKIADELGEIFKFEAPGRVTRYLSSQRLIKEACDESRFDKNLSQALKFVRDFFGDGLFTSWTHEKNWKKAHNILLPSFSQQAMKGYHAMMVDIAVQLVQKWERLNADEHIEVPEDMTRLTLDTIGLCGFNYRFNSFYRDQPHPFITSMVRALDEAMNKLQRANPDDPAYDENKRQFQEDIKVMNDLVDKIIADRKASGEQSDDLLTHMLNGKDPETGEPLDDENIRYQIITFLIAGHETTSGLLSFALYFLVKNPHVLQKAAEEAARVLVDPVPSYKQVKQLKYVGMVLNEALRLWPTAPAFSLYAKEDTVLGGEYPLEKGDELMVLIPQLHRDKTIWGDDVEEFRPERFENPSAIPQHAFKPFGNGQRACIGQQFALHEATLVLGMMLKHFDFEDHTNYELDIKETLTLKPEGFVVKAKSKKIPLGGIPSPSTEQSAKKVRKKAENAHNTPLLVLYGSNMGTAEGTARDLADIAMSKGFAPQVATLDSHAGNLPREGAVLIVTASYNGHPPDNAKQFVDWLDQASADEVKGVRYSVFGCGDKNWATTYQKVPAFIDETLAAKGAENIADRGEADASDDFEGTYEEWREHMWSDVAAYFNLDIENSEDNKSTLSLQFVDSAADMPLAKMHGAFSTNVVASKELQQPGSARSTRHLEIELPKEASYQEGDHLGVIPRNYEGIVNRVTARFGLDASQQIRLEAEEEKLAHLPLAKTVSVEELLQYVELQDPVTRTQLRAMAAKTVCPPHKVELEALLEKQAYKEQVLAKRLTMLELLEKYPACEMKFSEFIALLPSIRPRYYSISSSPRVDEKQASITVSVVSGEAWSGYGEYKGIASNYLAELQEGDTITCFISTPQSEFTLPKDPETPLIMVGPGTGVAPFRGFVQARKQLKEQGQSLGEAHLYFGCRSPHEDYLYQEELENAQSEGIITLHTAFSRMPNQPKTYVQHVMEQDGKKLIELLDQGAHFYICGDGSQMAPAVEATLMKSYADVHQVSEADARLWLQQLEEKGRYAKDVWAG", "procedure": "as §1"}, "[3]": {"biological_target": "Bifunctional cytochrome P450/NADPH--P450 reductase [F87V] (Bacillus megaterium, UniProt P14779, F87V)", "sequence (P14779 whole entry F88V)": "as the sequence (P14779 whole entry A83F) above, with F83A, F88V counted along it", "procedure": "as §1"}, "[4]": {"biological_target": "Bifunctional cytochrome P450/NADPH--P450 reductase [A82F,F87V] (Bacillus megaterium, UniProt P14779, A82F/F87V)", "sequence (P14779 whole entry A83F/F88V)": "as the sequence (P14779 whole entry A83F) above, with F88V counted along it", "procedure": "as §1"}}}
{"compound": "CCCCCCCCCCCCCCCC(=O)NCC(=O)O", "note": "[N-palmitoylglycine (NPG)]", "values": [{"measurement": "Kd", "setting": "[1]", "result": 0.082, "unit": "µM"}, {"measurement": "Kd", "setting": "[2]", "result": 0.297, "unit": "µM"}, {"measurement": "Kd", "setting": "[3]", "result": 0.204, "unit": "µM"}, {"measurement": "Kd", "setting": "[4]", "result": 0.004, "unit": "µM"}]}
{"compound": "COc1ccc2[nH]c([S+]([O-])Cc3ncc(C)c(OC)c3C)nc2c1", "note": "(configuration not stated) [H-168/68]", "values": [{"measurement": "Kd", "setting": "[2]", "result": 1.67, "unit": "µM"}, {"measurement": "Kd", "setting": "[3]", "result": 49, "unit": "µM"}, {"measurement": "Kd", "setting": "[4]", "result": 0.212, "unit": "µM"}]}
